Literature values as cited in article PMC10842190 (ACS sensors, 2023).

Columns and labels:
[1] = tested on: damaged collagen triple helices

Row | Compound | Toxicity to human cells (human cells) | Annealing to damaged collagen triple helices [1]
1 | O=C(O)[C@@H]1C[C@H](F)CN1 [H-flp-OH, (2S,4S)-4-fluoroproline] | not toxic | 
2 | (Gly-Ser)2-Gly-(flp-Hyp-Gly)7 |  | can anneal
3 | (Gly-Ser)2-Gly-(Hyp-flp-Gly)7 |  | cannot anneal
